Reference: ChEMBL document CHEMBL1201862, “PubChem BioAssay data set” (2004)
Activity calls are given as the source filed them. Unless noted, the rule behind the calls is not given here.

Key:
[1] = molecular target: T1, Nucleotide-binding oligomerization domain-containing protein 2 (Homo sapiens, UniProt Q9HC29); test: inhibition of NOD2 signaling – set 2, SAR follow-up (AID 2475); format: functional
Interleukin-8 [2] = molecular target: T2, Interleukin-8 (Homo sapiens, UniProt P10145); test: SAR analysis of GM-Tri-DAP induced IL-8 secretion in MCF-7/NOD1 cells - Set 2. [Related pubchem assays (depositor defined):AID1575, AID1578, AID2333]; format: functional, cell-based
T2 sequence (P10145 whole entry): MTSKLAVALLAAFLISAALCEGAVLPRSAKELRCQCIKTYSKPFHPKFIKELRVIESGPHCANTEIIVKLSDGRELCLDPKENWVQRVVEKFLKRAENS

Tumor necrosis factor = Tumor necrosis factor (Homo sapiens, UniProt P01375); test: analog potency on TNFa NF-kB signaling – cell-based, set 3, SAR follow-up (AID 2801); format: functional
Sequence of Tumor necrosis factor (P01375 whole entry): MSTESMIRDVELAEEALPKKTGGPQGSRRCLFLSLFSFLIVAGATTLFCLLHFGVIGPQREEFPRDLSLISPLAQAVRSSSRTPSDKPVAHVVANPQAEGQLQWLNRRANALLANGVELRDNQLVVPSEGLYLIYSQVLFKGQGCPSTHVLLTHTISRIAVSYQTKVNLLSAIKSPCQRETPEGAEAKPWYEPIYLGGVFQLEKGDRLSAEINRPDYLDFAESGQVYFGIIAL

Interleukin-8 [3] = molecular target: T2, Interleukin-8; test: SAR analysis of Tumor necrosis factor alpha (TNF-alpha) induced IL-8 secretion in MCF-7/NOD1 cells - Set 2. [Related pubchem assays (depositor defined):AID1575, AID2250, AID2260]; format: functional, cell-based
[4] = molecular target: T1, Nucleotide-binding oligomerization domain-containing protein 2; test: inhibition of MDP-driven NOD2 NF-kB reporter – cell-based, set 3, SAR follow-up (AID 2799); format: functional
[5] = molecular target: T3, Nucleotide-binding oligomerization domain-containing protein 1 (Homo sapiens, UniProt Q9Y239); test: SAR analysis of compounds that inhibit NOD1 - Set 3. [Related pubchem assays (depositor defined):AID1566, AID1575, AID1578, AID1849, AID1852, AID2333, AID2335, AID2466]; format: functional
T3 sequence (Q9Y239 whole entry): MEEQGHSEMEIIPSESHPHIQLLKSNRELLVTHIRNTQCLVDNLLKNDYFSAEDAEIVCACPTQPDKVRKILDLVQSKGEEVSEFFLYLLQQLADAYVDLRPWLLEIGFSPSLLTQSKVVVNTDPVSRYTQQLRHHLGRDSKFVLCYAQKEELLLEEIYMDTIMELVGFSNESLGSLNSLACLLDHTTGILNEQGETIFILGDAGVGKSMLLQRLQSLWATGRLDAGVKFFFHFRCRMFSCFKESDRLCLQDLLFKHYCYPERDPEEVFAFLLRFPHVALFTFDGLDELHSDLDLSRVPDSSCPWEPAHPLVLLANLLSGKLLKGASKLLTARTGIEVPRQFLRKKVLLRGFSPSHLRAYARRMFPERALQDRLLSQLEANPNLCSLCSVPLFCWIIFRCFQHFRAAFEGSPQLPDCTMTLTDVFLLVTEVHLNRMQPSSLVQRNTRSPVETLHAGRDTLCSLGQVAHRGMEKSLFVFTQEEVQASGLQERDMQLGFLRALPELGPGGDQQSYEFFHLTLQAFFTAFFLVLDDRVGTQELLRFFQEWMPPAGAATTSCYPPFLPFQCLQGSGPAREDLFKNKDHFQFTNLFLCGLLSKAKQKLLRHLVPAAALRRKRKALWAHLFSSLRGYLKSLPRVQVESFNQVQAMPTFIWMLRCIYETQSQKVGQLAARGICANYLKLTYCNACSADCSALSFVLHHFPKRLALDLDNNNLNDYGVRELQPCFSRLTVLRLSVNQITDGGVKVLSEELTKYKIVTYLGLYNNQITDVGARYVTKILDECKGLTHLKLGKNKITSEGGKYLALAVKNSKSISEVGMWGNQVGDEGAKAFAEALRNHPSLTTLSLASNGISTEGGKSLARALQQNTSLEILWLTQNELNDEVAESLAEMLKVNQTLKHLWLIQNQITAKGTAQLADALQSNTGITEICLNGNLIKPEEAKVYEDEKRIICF

HEK293 [6] = test: SAR analysis of compounds that are cytotoxic to HEK293 - Set 3. [Related pubchem assays (depositor defined):AID1575, AID1578, AID1848, AID1849, AID2001, AID2333, AID2334, AID2335, AID2337, AID2469]; format: functional, cell-based; details: Homo sapiens
[7] = molecular target: T3, Nucleotide-binding oligomerization domain-containing protein 1; test: SAR analysis of NF-kappaB dependent luciferase using DAP as an inducer - Set 2. [Related pubchem assays (depositor defined):AID1566, AID1575, AID1578, AID1579, AID1849, AID1852, AID2264]; format: functional
HEK293 [8] = test: SAR analysis of compounds that are cytotoxic to HEK293 - Set 2. [Related pubchem assays (depositor defined):AID1575, AID1578, AID1849, AID2001, AID2333, AID2334, AID2335, AID2337, AID2800]; format: functional, cell-based; details: Homo sapiens
[9] = molecular target: T4, E3 ubiquitin-protein ligase XIAP (Homo sapiens, UniProt P98170); test: SAR analysis of Antagonists of IAP-family anti-apoptotic proteins. [Related pubchem assays (depositor defined):AID1018, AID1449, AID1513, AID1514, AID1638]
T4 sequence (P98170 whole entry, the tested form may be a part): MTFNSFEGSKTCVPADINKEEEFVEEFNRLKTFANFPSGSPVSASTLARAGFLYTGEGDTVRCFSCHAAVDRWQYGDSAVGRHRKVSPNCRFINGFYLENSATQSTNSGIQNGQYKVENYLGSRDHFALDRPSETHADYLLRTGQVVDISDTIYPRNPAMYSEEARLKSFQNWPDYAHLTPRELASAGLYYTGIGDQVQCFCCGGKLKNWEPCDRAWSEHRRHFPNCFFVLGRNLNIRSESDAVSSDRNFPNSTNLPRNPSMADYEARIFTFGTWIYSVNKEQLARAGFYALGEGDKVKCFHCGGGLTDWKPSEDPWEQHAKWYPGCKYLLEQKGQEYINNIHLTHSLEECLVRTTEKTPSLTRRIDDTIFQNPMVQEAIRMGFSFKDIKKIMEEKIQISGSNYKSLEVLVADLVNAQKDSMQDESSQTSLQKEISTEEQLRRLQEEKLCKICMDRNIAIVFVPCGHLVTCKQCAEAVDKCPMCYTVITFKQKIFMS

[10] = molecular target: T4, E3 ubiquitin-protein ligase XIAP; test: SAR analysis of Antagonists of XIAP-Bir3 domain of IAP-family anti-apoptotic proteins. [Related pubchem assays (depositor defined):AID1018, AID1449, AID1513, AID1514, AID1638]
[11] = molecular target: T5, Kappa-type opioid receptor (Homo sapiens, UniProt P41145); test: SAR analysis of small molecule antagonists of the kappa opioid receptor via a luminescent beta-arrestin assay - Set 5. [Related pubchem assays (depositor defined):AID1778, AID1785]; format: functional
T5 sequence (P41145 whole entry): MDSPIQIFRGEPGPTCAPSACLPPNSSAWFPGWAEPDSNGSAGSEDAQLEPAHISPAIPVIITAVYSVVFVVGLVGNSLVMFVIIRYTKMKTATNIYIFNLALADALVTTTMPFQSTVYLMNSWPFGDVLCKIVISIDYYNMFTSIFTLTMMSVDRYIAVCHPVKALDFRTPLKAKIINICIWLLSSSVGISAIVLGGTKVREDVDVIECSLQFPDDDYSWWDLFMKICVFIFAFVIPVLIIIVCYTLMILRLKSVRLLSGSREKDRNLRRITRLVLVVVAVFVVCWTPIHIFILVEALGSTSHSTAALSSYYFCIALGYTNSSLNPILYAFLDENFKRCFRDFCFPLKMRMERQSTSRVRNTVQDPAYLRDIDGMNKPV

[12] = molecular target: T5, Kappa-type opioid receptor; test: SAR analysis of small molecule antagonists of the kappa opioid receptor via a luminescent beta-arrestin assay - Set 4. [Related pubchem assays (depositor defined):AID1777, AID1778, AID1785, AID1786, AID1966, AID2133, AID2136, AID2285]; format: functional
[13] = PhoP promoter GFP reporter reduction in Typhimurium – purified and synthesized compounds, set 2, PhoP regulon inhibitor project, dose response (AID 2831); format: functional

T1 sequence (Q9HC29 whole entry, the tested form may be a part): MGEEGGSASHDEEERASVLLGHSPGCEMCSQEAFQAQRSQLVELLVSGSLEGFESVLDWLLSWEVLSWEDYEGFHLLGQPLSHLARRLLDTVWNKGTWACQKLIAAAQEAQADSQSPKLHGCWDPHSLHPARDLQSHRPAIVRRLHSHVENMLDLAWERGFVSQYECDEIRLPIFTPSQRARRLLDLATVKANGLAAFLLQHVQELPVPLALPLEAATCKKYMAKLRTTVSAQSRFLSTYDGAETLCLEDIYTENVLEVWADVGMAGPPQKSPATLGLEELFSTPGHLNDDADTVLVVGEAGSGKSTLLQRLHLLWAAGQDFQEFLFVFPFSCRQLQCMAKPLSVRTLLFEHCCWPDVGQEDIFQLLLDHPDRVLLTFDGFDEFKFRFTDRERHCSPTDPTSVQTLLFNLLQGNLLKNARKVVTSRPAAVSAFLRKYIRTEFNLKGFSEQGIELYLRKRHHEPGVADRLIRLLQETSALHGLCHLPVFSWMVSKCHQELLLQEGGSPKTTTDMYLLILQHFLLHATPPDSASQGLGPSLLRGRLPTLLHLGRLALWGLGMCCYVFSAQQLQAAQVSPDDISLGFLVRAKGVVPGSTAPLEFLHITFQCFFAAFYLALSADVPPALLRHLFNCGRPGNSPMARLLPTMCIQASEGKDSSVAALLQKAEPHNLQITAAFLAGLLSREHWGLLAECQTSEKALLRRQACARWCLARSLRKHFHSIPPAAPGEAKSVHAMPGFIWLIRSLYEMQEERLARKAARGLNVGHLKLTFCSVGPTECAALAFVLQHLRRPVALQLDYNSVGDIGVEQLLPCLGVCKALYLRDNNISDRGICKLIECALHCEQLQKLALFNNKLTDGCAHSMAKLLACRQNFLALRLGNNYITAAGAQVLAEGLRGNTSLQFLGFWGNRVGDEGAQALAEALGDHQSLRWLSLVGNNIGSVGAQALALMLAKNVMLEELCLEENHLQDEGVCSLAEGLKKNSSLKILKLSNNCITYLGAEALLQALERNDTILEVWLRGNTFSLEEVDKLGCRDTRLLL

CCCCCn1c(SCCc2ccccc2)nc2c1c(=O)[nH]c(=O)n2C
IC50 [1]: > 20 µM (inactive)
IC50 (Interleukin-8 [2]): 4.1 µM (active)
IC50 (Tumor necrosis factor): > 20 µM (inactive)
IC50 (Interleukin-8 [3]): > 25 µM (inactive)
IC50 [4]: > 20 µM (inactive)
IC50 [5]: 1.74 µM (active)
IC50 (HEK293 [6]): > 20 µM (inactive)
IC50 [7]: > 25 µM (inactive)
IC50 (HEK293 [8]): > 20 µM (inactive)

CN[C@@H](C)C(=O)N[C@H](C(=O)N[C@@H](C)C(=O)NNc1ccccc1)C(C)C
IC50 [9]: 4.7 µM (active)
IC50 [10]: 132 µM (active)

Cc1ccc(S(=O)(=O)NCc2ccc(C(=O)NCCN(Cc3ccc([N+](=O)[O-])cc3)C(C)C)cc2)cc1
IC50 [11]: > 20 µM (inactive)
IC50 [12]: > 20 µM (inactive)

OC1=C2C(=Nc3ccccc3SC2c2ccco2)c2ccccc21 (centres undefined)
IC50 [13]: > 125 µM (active)
